Experimental findings from US8455251B2, “Method for isolating and culturing adult stem cells derived from human amniotic epithelium” (RNL Bio Co., Ltd., priority 2007, dated 2013) are described below.

Common to all, as to format: cell-based, human
Data set [1] relates to amniotic epithelial cell-derived adult stem cells. As to the kind of experiment: Proliferation of stem cells according to ROCK inhibitor treatment period. How it is done:
In order to further improve the proliferation ability of the amniotic epithelial cells obtained in Example 1, the method used in the embryonic stem cell study (Watanabe et al., Nature Biotechnology, 25:681, 2007) and the method of adding ROCK inhibitor during the culture were compared. In other words, the culture in which 10 μM of ROCK inhibitor was added only before reseeding was compared with the culture in which the ROCK inhibitor was added even after reseeding.

Data set [2] has the same test system. The experiment in a line: Culture and subculture of amniotic epithelial cells in the presence of ROCK inhibitor. To be noted: 10 μM ROCK inhibitor added 4 days after isolation of the amniotic epithelial cells, FIG. 2. The procedure: The obtained amniotic epithelial cells were cultured in a medium (Gibco) consisting of a 1:1 mixture of DMEM (Dulbecco modified Eagle medium) and F-12 (nutrient mixture) to which FBS, ascorbic acid, epidermal growth factor, insulin, an antibiotic and 10 μM of ROCK inhibitor Y-27632 have been added at the concentrations shown in Table 2 below. After 3 days of culture, the adult stem cells derived from the cultured amniotic epithelial cells were washed with HBSS buffer, and then incubated with Tryple-express (Gibco) or 0.25% trypsin-EDTA at 37° C. for 10 minutes. An FBS-containing medium was added thereto to inactivate trypsin, and then 5×10^6 stem cells derived from the amniotic epithelial cells were obtained and seeded into a fresh medium and subcultured. For each reseeding for subcultures, 10 μM of ROCK inhibitor was added to each fresh medium.

Data set [3] has the same test system. As to the kind of experiment: Effect of the addition of ROCK inhibitor on proliferation of stem cells (Comparative Example 1). To be noted: 10 μM; observed 1, 2 and 3 days after seeding. How it is done: In order to examine the effect of ROCK inhibitor, 4×10^6 amniotic epithelial cells obtained in Example 1 were subcultured in a DMEM/F-12 medium containing FBS, ascorbic acid, epidermal growth factor, insulin and an antibiotic for 4 days. Then, the cells were seeded into each of a medium containing 10 μM of the ROCK inhibitor Y-27632 and a medium containing no ROCK inhibitor and were observed 1 day, 2 days and 3 days after seeding.

Data set [4] has the same test system. As to the kind of experiment: Proliferation of stem cells at various concentrations of ROCK inhibitor. Also on record: proliferation of the cells: dose or concentration left out as unconfirmed. How it is done: In order to examine the proliferation potential of amniotic epithelial cell-derived adult stem cells at various concentrations of ROCK inhibitor, the amniotic epithelial cells obtained in Example 1 were subcultured in DMEM/F-12 media containing FBS, ascorbic acid, epidermal growth factor, insulin and an antibiotic, to which ROCK inhibitor Y-27632 has been added at various concentrations of 100 μM, 1 μM, 100 nM and 10 nM. After 1 day and 4 days of the subculture, the optimum ROCK inhibitor Y-27632 concentration for the culture of the adult stem cells was examined.

The subject of data set [5] is amniotic epithelial cells. As to the kind of experiment: Isolation of amniotic epithelial cells from amniotic tissue, living cells counted by trypan blue. How it is done: 5 g of amniotic tissue was weighed and washed with HBSS. For stable isolation of amniotic epithelial cells, the washing process was carried out using HBSS buffer more similar to the constituents of the human body rather than using general PBS. The washed amniotic tissue was transferred into a 50-ml tube, and 10 mM DTT was added thereto. After treatment with DTT for 30 minutes, the supernatant was discarded, the amniotic tissue was finely cut, and the finely cut amniotic tissue was treated with fresh 0.05% trypsin-EDTA at 37° C. for 42 minutes under stirring, thus chemically degrading the tissue. The chemically degraded tissue was vortexed for 1 minute, and then it was primarily filtered through a 1-mm mesh and secondarily filtered through a 100-μm mesh, thus removing non-degraded tissue. The filtered tissue was centrifuged at 1800 rpm for 10 minutes. The single cell pellets at the bottom were well suspended, thus obtaining amniotic epithelial cells. Living cells were visually counted under a microscope using a hemocytometer according to trypan blue dye method and, as a result, the number of cells counted immediately after isolation was 3.72×10^7 cells (FIG. 1 (A)). On the other hand, in the case in which amniotic epithelial cells were isolated from amniotic tissue by treatment with trypsin alone without the addition of DTT, the number of cells counted immediately after isolation was 9.25×10^5 cells (FIG. 1 (B)).

In the case of `CC(N)C1CCC(C(=O)Nc2ccncc2)CC1` (stereo not drawn) [ROCK inhibitor, Y-27632], the “proliferation ability of the adult stem cells” value in data set [1] (case (A): 10 μM ROCK inhibitor only before reseeding, cultured 1 day) was “clearly increased compared to the control”. In data set [1] (case (B): ROCK inhibitor continuously added during reseeding and culture, 1 day), the “proliferation ability of adult stem cells” value was “superior compared to the case (A)”. Further, the “number of the adult stem cells” value in data set [2] was “rapidly increased”. In data set [3], the “apoptosis of the amniotic epithelial cells” value was “inhibited” and the “proliferation of adult stem cells” value is reported as “significantly increased”. Besides, the degree of proliferation result in data set [4] (10 nM, after 1 day and 4 days of subculture, versus untreated control) is reported as “did not greatly differ from that in the control”. In addition, in data set [4] (100 μM, after 1 day and 4 days of subculture), the “cell morphology / differentiation” value was “a cell morphology change or cell differentiation appeared”. The “proliferation of the cells” value in data set [4] (after 1 day and 4 days of subculture) is “significantly increased”. Further, the “most preferred concentration for the culture of the adult stem cells” value in data set [4] (tested at 100 μM, 1 μM, 100 nM and 10 nM) is “about 10 μM”.

Turning to `O[C@H](CS)[C@H](O)CS` (racemic) [DTT, dithiothreitol], the “number of cells counted immediately after isolation” value in data set [5] (5 g amniotic tissue, 10 mM DTT 30 minutes, then 0.05% trypsin-EDTA 37° C. 42 minutes) is on record as 3.72×10^7 cells. In addition, in data set [5] (DTT and trypsin (FIG. 1 A, C) versus trypsin alone (B, D)), the “number of isolated amniotic epithelial cells and number of cells after culture, versus trypsin alone” value is “significantly larger”.

B1: trypsin: 0.05% trypsin-EDTA (Gibco) used to isolate single cells from amniotic tissue (protein, UniProt P00761 9-231, looked up)
Trypsin: IVGGYTCAANSIPYQVSLNSGSHFCGGSLINSQWVVSAAHCYKSRIQVRLGEHNIDVLEGNEQFINAAKIITHPNFNGNTLDNDIMLIKLSSPATLNSRVATVSLPRSCAAAGTECLISGWGNTKSSGSSYPSLLQCLKAPVLSDSSCKSSYPGQITGNMICVGFLEGGKDSCQGDSGGPVVCNGQLQGIVSWGYGCAQKNKPGVYTKVCNYVNWIQQTIAAN
modifications: with EDTA
notes: 0.05% trypsin-EDTA (Gibco) used to isolate single cells from amniotic tissue
Take B1: the “number of cells counted immediately after isolation” value in data set [5] (treatment with trypsin alone without the addition of DTT) is given as 9.25×10^5 cells.
